Data as given in patent publication US4237273A, “Bis(nitrosoureido)-polyol derivatives” (Richter Gedeon Vegyeszeti Gyar RT, priority 1977, dated 1980).

Experiments:
[1] = system: BDF1 mice; assay: Acute toxicity (LD50), 21 days observation; assay type: in vivo; settings: BDF1 mice of both sexes
Procedure: Species: BDF1 mice of both sexes
Treatment: a volume of 0.2 ml./10 g. body weight of a suspension of the tested compounds in water containing 2% of Tween-80 was used.
Number of animals: 10/dose
Observation time: 21 days

[2] = system: Ehrlich ascites carcinoma; assay: Way of activity: thymidine index (3H-thymidine incorporation into DNS) in Ehrlich ascites carcinoma; assay type: in vivo, Mice; settings: in 24 hours; i.p. on 6th day, equitoxic doses
Procedure: (§1) Mice, being infected with Ehrlich ascites carcinoma, were treated intraperitoneally on the 6th day after transplantation with equitoxic doses of compounds 1, 2 and 6. The duration of the activity was investigated by determining the total cell number and the way of action by determining the mitosis index* and the thymidine index**. It could be shown that both compounds 1 and 2 inhibit the increase of the total cell number for 35 days, while a similar inhibition of the reference compound 6 lasts only for 17 days. As far as the quality of the activity is concerned, compounds 1 and 2 decrease the mitosis-index and the thymidine index in 24 hours by 90%, while in the case of compound 6 the decrease amounts only to 45 to 50%, and the maximum is reached on the 4th day.
**thymidine index=^3 H-thymidine incorporation into the DNS of the tumour cell.

[3] = system: S-180 s.c. sarcoma; assay: Antitumour activity, S-180 s.c. sarcoma, tumour weight (Table 3); assay type: in vivo, CFLP mice; settings: from the 2nd day
Procedure: (§2) The leukemia and ascites type tumours were transplanted intraperitoneally, using an amount of 10^5 -10^7 cells, while in the case of solid tumours, small pieces of tumours were implanted subcutaneously with a trocar. Treatment:
(§3) Mice were treated with a volume of 0.1 ml./10 g. body-weight of a suspension of the tested compounds in water containing 2% of Tween-80, while rats were treated with a volume of 0.1 ml./100 g. bodyweight of a suspension of the tested compounds in water containing 5% of Tween-80.
(§4) In the case of solid tumours (Harding-Passey melanoma, S-180 and Yoshida sarcoma) the tumours were removed on the 8 to 14th day, and the inhibition was calculated by the weight of the tumours, using the following formula: [formula]

[4] = system: Ehrlich ascites carcinoma; assay: Way of activity: mitosis index in Ehrlich ascites carcinoma; assay type: in vivo, Mice; settings: in 24 hours; i.p. on 6th day, equitoxic doses
Procedure: as §1
*mitosis index=number of dividing cells/1000 tumour cells

[5] = system: P-388 leukemia; assay: Antitumour activity, P-388 leukemia (Table 2); assay type: in vivo, BDF1 mice; settings: 12.0 mg./kg. 4× i.p., from the 2nd day; animals recovered/treated
Procedure: as §2, §3
(§5) The ascites and leukemia-type tumours were evaluated with the exception of the Rausher leukemia by the increase of the life span and by complete recovery. [formula]
(§6) Recovery=90 days of tumour free life after transplantation.

[6] = system: Developed Yoshida s.c. sarcoma; assay: Recovery from developed Yoshida s.c. sarcoma, treated on 6th day (Table 4); assay type: in vivo, CFY rats; settings: 50 mg./kg. 1× i.p. on 6th day; animals recovered/treated
Procedure: as §2, §3, §6

[7] = system: Rausher leukemia; assay: Antitumour activity, Rauscher leukemia, spleen weight (Table 3); assay type: in vivo, CFLP mice; settings: 10.0 mg./kg. 6× i.p., from the 2nd day
Procedure: as §2, §3, §4
A similar method was applied in the case of the Rauscher leukemia too, but the weight of the spleen was taken, instead of the tumour, in the formula mentioned above.

[8] = system: Ehrlich acites carcinoma; assay: Antitumour activity, Ehrlich ascites carcinoma (Table 2); assay type: in vivo, CFLP mice; settings: 1.5 mg./kg. 4× i.p., from the 2nd day; animals recovered/treated
Procedure: as §2, §3, §5, §6

[9] = system: Ehrlich ascites carcinoma; assay: Duration of activity: total cell number in Ehrlich ascites carcinoma; assay type: in vivo, Mice; settings: i.p. on the 6th day after transplantation, equitoxic doses
Procedure: as §1

[10] = system: Harding-Passey melanoma; assay: Antitumour activity, Harding-Passey melanoma, tumour weight (Table 3); assay type: in vivo, CFLP mice; settings: from the 4th day after transplantation
Procedure: as §2, §3, §4

[11] = system: NK/Ly ascites lymphoma; assay: Antitumour activity, NK/Ly ascites lymphoma (Table 2); assay type: in vivo, CFLP mice; settings: from the 2nd day; for Recovery (90 day survival): animals recovered/treated
Procedure: as §2, §3, §5, §6

[12] = system: Yoshida s.c. sarcoma; assay: Antitumour activity, Yoshida s.c. sarcoma, tumour weight (Table 3); assay type: in vivo, CFY rats; settings: from the 2nd day
Procedure: as §2, §3, §4

[13] = system: L-120 leukemia; assay: Antitumour activity, L-1210 leukemia (Table 2); assay type: in vivo, BDF1 mice; settings: from the 2nd day; for Recovery (90 day survival): animals recovered/treated
Procedure: as §2, §3, §5, §6

1,4-bis[3-(2-chloroethyl)-N-nitrosoureido]-1,4-dideoxy-D,L-threitol [Compound 1]
LD50 value i.p. ([1]; i.p.): 80 mg/kg | LD50 value p.o. ([1]; p.o.): 135 mg/kg | Decrease of the thymidine index [2]: 90% | Inhibition (tumour weight) ([3]; 3.0 mg./kg. 2× i.p.): 43% | Inhibition (tumour weight) ([3]; 10.0 mg./kg. 4× p.o.): 42% | Inhibition (tumour weight) ([3]; 12.0 mg./kg. 4× i.p.): 80% | Decrease of the mitosis-index [4]: 90% | Recovery (90 day survival) [5]: 7/8 | Recovery (90 day survival) [6]: 5/7 | Inhibition (spleen weight) [7]: 78% | Recovery (90 day survival) [8]: 6/8 | Duration of inhibition of the increase of the total cell number [9]: 35 days | Inhibition (tumour weight) ([10]; 10.0 mg./kg. 5× p.o.): 96% | Inhibition (tumour weight) ([10]; 24.0 mg./kg. 1× i.p.): 81% | Recovery (90 day survival) ([11]; 1.5 mg./kg. "433" i.p.): 6/8 | Recovery (90 day survival) ([11]; 3.0 mg./kg. 4× i.p.): 8/8 | Increase in life span ([11]; 30.0 mg./kg. 4× p.o.): 89% | Recovery (90 day survival) ([11]; 30.0 mg./kg. 4× p.o.): 1/7 | Inhibition (tumour weight) ([12]; 12 mg./kg. 4× i.p.): 99% | Inhibition (tumour weight) ([12]; 24 mg./kg. 1× i.p.): 76% | Increase in life span ([13]; 7.5 mg./kg. 1× i.p.): 45% | Recovery (90 day survival) ([13]; 7.5 mg./kg. 1× i.p.): 2/8 | Increase in life span ([13]; 12.5 mg./kg. 1× p.o.): 23% | Recovery (90 day survival) ([13]; 12.5 mg./kg. 1× p.o.): 1/8 | Increase in life span ([13]; 12.5 mg./kg. 3× p.o.): 30% | Recovery (90 day survival) ([13]; 12.5 mg./kg. 3× p.o.): 3/8 | Increase in life span ([13]; 15.0 mg./kg. 1× i.p.): 29% | Recovery (90 day survival) ([13]; 15.0 mg./kg. 1× i.p.): 3/8 | Increase in life span ([13]; 25.0 mg./kg. 1× p.o.): 111% | Recovery (90 day survival) ([13]; 25.0 mg./kg. 1× p.o.): 3/8 | Recovery (90 day survival) ([13]; 25.0 mg./kg. 3× p.o.): 6/8 | Increase in life span ([13]; 30.0 mg./kg. 1× i.p.): 230% | Recovery (90 day survival) ([13]; 30.0 mg./kg. 1× i.p.): 7/8 | Increase in life span ([13]; 50.0 mg./kg. 1× p.o.): 84% | Recovery (90 day survival) ([13]; 50.0 mg./kg. 1× p.o.): 4/8
